Reference: ChEMBL document CHEMBL5528061, “Development of Potent MALT1 Inhibitors Featuring a Novel "2-Thioxo-2,3-dihydrothiazolo[4,5-d]pyrimidin-7(6H)-one" Scaffold for the Treatment of B Cell Lymphoma” (J Med Chem, 2024)
Active and inactive are the calls of the source. No cut-off for these calls is given here.

Legend:
Caspase-8 (Homo sapiens) = Caspase-8 (Homo sapiens) (UniProt Q14790); experiment: Inhibition of caspase-8 (unknown origin) using Ac-IETD-AFC as substrate at 40 uM preincubated for 40 mins followed by substrate addition by microplate reader analysis
Caspase-8 (Homo sapiens), sequence (Q14790 217-374 limits assumed): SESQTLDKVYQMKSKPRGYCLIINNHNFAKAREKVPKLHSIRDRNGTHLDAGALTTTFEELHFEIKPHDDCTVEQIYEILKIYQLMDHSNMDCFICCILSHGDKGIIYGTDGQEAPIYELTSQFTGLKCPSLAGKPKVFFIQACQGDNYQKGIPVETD
Caspase-8 (Homo sapiens), sequence (Q14790 385-479 limits assumed): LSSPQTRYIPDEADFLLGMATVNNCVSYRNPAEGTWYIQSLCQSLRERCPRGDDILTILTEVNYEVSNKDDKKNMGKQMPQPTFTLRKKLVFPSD

[1] = target: Mucosa-associated lymphoid tissue lymphoma translocation protein 1 (Homo sapiens) (UniProt Q9UDY8)
Mucosa-associated lymphoid tissue lymphoma translocation protein 1 (Homo sapiens), sequence (Q9UDY8 whole entry): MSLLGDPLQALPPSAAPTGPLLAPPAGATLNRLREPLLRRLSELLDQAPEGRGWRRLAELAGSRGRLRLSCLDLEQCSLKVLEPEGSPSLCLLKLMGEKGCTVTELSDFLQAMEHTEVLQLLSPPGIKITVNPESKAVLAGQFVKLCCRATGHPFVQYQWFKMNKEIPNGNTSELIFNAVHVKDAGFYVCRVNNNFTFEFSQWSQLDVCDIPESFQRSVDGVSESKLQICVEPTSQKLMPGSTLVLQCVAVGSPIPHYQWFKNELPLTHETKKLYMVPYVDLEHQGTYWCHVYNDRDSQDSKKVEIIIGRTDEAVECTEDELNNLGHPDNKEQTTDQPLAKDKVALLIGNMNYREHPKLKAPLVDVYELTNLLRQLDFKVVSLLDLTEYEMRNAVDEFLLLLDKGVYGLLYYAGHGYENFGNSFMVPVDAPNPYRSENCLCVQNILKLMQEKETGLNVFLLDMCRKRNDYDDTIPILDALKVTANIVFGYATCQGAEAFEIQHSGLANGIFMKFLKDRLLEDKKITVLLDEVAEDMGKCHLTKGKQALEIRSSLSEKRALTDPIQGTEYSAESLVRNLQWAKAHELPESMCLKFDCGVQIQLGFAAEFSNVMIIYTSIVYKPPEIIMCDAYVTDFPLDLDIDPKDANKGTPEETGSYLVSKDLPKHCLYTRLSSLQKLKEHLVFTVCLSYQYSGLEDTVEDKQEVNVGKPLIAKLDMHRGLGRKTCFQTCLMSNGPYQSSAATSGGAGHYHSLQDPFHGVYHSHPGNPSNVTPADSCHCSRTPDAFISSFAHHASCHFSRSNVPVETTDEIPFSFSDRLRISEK
Description: Binding affinity to N-terminal His-tagged LZ-fused MALT1 (340 to 789 residues)(unknown origin) expressed in Escherichia coli assessed as inactivation constant

[2] = target: Proto-oncogene tyrosine-protein kinase receptor Ret (Homo sapiens) (UniProt P07949); experiment: Inhibition of RET (unknown origin) at 10 uM relative to control
Proto-oncogene tyrosine-protein kinase receptor Ret (Homo sapiens), sequence (P07949 whole entry): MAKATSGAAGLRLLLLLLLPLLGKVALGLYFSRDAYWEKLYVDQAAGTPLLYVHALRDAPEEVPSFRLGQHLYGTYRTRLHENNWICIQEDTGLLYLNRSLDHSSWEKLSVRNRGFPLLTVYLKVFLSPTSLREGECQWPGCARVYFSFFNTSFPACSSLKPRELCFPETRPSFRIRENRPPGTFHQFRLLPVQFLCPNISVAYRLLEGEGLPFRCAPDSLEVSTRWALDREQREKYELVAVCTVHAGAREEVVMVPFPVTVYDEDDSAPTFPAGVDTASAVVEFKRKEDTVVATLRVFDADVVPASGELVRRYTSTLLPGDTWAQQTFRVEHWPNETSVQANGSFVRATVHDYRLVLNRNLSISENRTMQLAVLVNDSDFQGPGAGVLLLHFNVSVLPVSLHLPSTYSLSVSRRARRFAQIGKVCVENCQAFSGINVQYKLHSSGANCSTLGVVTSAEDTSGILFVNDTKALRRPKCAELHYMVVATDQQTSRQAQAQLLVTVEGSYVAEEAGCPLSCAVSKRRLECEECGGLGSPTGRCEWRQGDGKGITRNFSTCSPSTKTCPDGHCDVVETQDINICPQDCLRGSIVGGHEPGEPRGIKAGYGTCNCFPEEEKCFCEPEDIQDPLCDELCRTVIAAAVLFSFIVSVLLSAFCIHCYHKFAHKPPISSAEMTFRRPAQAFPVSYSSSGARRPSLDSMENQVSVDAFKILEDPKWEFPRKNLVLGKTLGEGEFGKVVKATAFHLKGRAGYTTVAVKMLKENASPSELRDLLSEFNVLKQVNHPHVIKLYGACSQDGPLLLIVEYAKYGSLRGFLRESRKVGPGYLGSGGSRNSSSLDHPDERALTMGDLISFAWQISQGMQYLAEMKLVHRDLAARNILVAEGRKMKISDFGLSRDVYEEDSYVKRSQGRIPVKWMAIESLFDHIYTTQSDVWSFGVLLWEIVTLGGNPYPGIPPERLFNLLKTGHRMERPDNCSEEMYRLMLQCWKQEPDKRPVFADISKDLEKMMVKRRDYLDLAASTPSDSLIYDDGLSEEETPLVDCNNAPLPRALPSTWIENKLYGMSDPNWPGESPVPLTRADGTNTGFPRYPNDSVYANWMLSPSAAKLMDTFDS

HBL1 = experiment: Antitumor activity against human HBL1 cells xenografted in NCG mouse assessed as tumor growth suppression at 25 mg/kg/day, ip consecutively for 12 days; format: functional, organism-based; details: time 12.0 day
[3] = Glutathione reactivity in MeOH/DPBS assessed as peak area ratio at 10 ug/ml measured after 0.5 hrs by MS/MS analysis; format: physicochemical; details: at 10 µg/mL
[4] = MRT in ICR mouse at 30 mg/kg, ip measured for 3 hrs by LC-MS/MS analysis; format: ADME, organism-based; details: in vivo
OCI-Ly1 [5] = experiment: Downregulation of NF-kappaB signalling pathway in human OCI-Ly1 cells at 0.5 uM incubated for 24 hrs by GSEA analysis; format: functional, cell-based
OCI-Ly1 [6] = experiment: Downregulation of NF-kappaB signalling pathway in human OCI-Ly1 cells at 0.5 uM incubated for 24 hrs by KEGG enrichment analysis; format: functional, cell-based
[7] = Tmax in ICR mouse at 30 mg/kg, ip measured for 3 hrs by LC-MS/MS analysis; format: ADME, organism-based; details: in vivo
[8] = Antitumor activity against human HBL1 cells xenografted in NCG mouse at 25 mg/kg/day, ip consecutively for 12 days relative to control; format: functional; details: HBL1, 288 h, time 12 day, read-out: TGI
[9] = Toxicity in NCG mouse xenografted with human TMD8 cells assessed as body weight loss at 25 mg/kg/day, ip consecutively for 14 days; format: organism-based; details: in vivo, 336 h, time 14 day
[10] = target: Fibroblast growth factor receptor 4 (Homo sapiens) (UniProt P22455); experiment: Inhibition of FGFR4 (unknown origin) at 10 uM relative to control
Fibroblast growth factor receptor 4 (Homo sapiens), sequence (P22455 22-802 limits assumed): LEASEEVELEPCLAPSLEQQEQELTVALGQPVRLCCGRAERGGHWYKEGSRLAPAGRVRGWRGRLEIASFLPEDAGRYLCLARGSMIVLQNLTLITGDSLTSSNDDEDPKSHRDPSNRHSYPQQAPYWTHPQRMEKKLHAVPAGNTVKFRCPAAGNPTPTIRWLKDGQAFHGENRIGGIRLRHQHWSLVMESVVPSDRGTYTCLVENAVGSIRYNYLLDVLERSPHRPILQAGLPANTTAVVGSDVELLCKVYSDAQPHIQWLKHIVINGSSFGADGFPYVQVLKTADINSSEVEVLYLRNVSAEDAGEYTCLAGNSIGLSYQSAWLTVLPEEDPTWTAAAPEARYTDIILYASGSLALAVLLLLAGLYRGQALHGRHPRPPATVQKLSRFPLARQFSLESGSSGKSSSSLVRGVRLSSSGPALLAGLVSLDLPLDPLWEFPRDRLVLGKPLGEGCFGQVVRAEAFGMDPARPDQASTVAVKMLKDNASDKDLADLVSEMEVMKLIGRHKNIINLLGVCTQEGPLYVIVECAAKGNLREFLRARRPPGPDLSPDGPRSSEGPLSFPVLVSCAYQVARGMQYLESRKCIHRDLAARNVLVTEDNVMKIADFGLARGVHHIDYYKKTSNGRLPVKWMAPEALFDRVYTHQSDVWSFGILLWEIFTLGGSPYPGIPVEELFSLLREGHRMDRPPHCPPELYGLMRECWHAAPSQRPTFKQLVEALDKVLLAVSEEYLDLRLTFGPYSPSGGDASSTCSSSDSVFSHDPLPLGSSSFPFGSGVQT

inhibition (Caspase-8 (Homo sapiens)): inactive
Kinact [1]: 0.023 min⁻¹
inhibition [2]: < 30%
Ratio [3]: 92%
MRT [4]: 40.6 min
Tmax [7]: 4.98 min
inhibition [10]: < 30%
SMILES: COc1ccc(OC)c(-n2c(CBr)nc3c(sc(=S)n3-c3cccc(Cl)c3)c2=O)c1
Activity (HBL1): Active
Activity (OCI-Ly1 [5]): inactive
Activity (OCI-Ly1 [6]): Active
inhibition in vivo at 25 mg/kg/day [8]: 55.9%
Activity [9]: Toxic
